{
  "source": "patent US20130085260A1",
  "about": "“METHOD FOR THE IDENTIFICATION OF T CELL EPITOPES” (CENTRE H[…] L'UNIVERSITE DE MONTREAL, priority 2010, published 2013)",
  "type_in_all_cases": "cell-based, human",
  "key": {"[1]": {"tested_on": "NP-CD8 T cell clone", "details": "EBV-B cells pulsed with synthetic peptide, 1 to 10 μg/mL for 10-mer, 50 μg/mL for longer peptides, 3 hours"}, "[2]": {"tested_on": "M1-CD4 T cell clone", "experiment": "IFN-γ secretion (ELISA) by M1-CD4 T cell clone co-cultured with peptide-pulsed EBV-B cells", "details": "EBV-B cells pulsed with synthetic peptide; HLA-DR-restricted", "protocol": "Antigen-specific bulk T cells from peripheral blood mononuclear cells stimulated with autologous CD4O-B cells electroporated with M1 or NP DNA plasmids were cloned by limiting dilution and cultured as previously described.^8\nSynthetic peptides were added to EBV-B cells at a final concentration of 1 to 10 μg/mL for MHC class 110-mer peptides (50 μg/mL for longer peptides) (Table 2) for 3 hours at 37° C. 5% CO2, and then washed once to remove unbound peptides. T-cell clones were washed and cultured for 4 hours in Iscove's complete medium supplemented with 120 IU/ml of interleukin-2 (IL-2). T cell clones' reactivity to MHC-restricted epitopes was tested on the basis of interferon-γ cytokine secretion as described previously.^7"}, "[3]": {"tested_on": "M1^58-66-specific T cells (M1-CD8)", "details": "EBV-B cells pulsed with peptide; negative specificity control"}},
  "data": [
    {"sequence": "AFDERRNKYL [Peptide 2]", "values": [
      {"measurement": "recognition by NP-CD8 T cell clone (IFN-γ production)", "setting": "[1]", "value": "more weakly but nevertheless specifically recognized"}
    ]},
    {"sequence": "NGNGDPNNMDKAVKL [Peptide b]", "values": [
      {"measurement": "recognition by M1-CD4 T cell clone (IFN-γ production)", "setting": "[2]", "value": "weakly recognized"}
    ]},
    {"sequence": "YRKLKREITF", "values": [
      {"measurement": "recognition by M1-CD4 T cell clone (IFN-γ production)", "setting": "[2]", "value": "specifically recognized"}
    ]},
    {"sequence": "LSAFDERRNKYLEEHPSAG [Peptide 1-6]", "values": [
      {"measurement": "recognition by NP-CD8 T cell clone (IFN-γ production)", "setting": "[1]", "value": "well recognized"}
    ]},
    {"sequence": "IMDQVPFSV [gp100^209-218 peptide]", "values": [
      {"measurement": "recognition by M1^58-66-specific T cells (IFN-γ production)", "setting": "[3]", "value": "did not recognize"}
    ]}
  ]
}
